Experimental data published in ChEMBL document CHEMBL5344429, “1,3-Substituted β-Carboline Derivatives as Potent Chemotherapy for the Treatment of Cystic Echinococcosis” (J Med Chem, 2023).
Activity calls are given as the source filed them. The calls are words filed in the database; no cut-off is given here.

Columns and labels:
Echinococcus granulosus [1] = experiment: Parasiticidal activity against Echinococcus granulosus protoscolices […] by eosin exclusion test; type: functional; conditions: 1152 h, time 48 day
Echinococcus granulosus [2] = experiment: Parasiticidal activity against Echinococcus granulosus protoscolices assessed as death rate at 1 uM incubated for 48 hrs by eosin exclusion test; type: functional
Echinococcus granulosus [3] = experiment: Parasiticidal activity against Echinococcus granulosus microcyst infected in kunming mouse assessed as mean cyst weight at 12.5 mg/kg, ip administered for 14 days; type: functional; conditions: time 14 day
[4] = Neurotoxicity in Kunming mouse assessed as incomplete mitochondrial membrane in hippocampal at 50 mg/kg, ip administered for 28 days by TEM analysis; type: toxicity, organism-based; conditions: in vivo, 672 h, time 28 day
Echinococcus granulosus [5] = experiment: Parasiticidal activity against intraperitoneal cystic Echinococcus granulosus infected in Kunming mouse assessed as reduction in cell count with clear nucleolus at 50 mg/kg, ip administered for 28 days by TEM analysis; type: functional, organism-based; conditions: time 28.0 day
Echinococcus granulosus [6] = experiment: Parasiticidal activity against Echinococcus granulosus protoscolices assessed as body shrank with irregular edge at 5 uM incubated for 4 days by H and E staining based assay; type: functional, organism-based; conditions: time 4.0 day
Echinococcus granulosus [7] = experiment: Parasiticidal activity against Echinococcus granulosus microcyst infected in kunming mouse assessed as reduction in cyst weight at 50 mg/kg, ip administered for 28 days relative to control; type: functional; parameters: scale not given: the % may be the effect or the level left; conditions: time 28 day
Echinococcus granulosus [8] = experiment: Parasiticidal activity against Echinococcus granulosus microcyst infected in kunming mouse assessed as mean cyst weight at 12.5 mg/kg, ip administered for 28 days; type: functional; conditions: time 28 day
Echinococcus granulosus [9] = experiment: Parasiticidal activity against Echinococcus granulosus microcyst infected in kunming mouse assessed as mean cyst weight at 25 mg/kg, ip administered for 28 days; type: functional; conditions: time 28 day
Echinococcus granulosus [10] = experiment: Parasiticidal activity against Echinococcus granulosus microcyst infected in kunming mouse assessed as reduction in cyst weight at 50 mg/kg, ip administered for 14 days relative to control; type: functional; parameters: scale not given: the % may be the effect or the level left; conditions: time 14 day
Echinococcus granulosus [11] = experiment: Parasiticidal activity against Echinococcus granulosus protoscolices assessed as survival rate at 1 uM incubated for 48 hrs by eosin exclusion test; type: functional
Echinococcus granulosus [12] = experiment: Induction of autophagy in Echinococcus granulosus protoscolices assessed as increase in Beclin1 expression level at 5 uM measured after 4 days by Western blot analysis; type: functional, organism-based; conditions: time 4.0 day
Echinococcus granulosus [13] = experiment: Parasiticidal activity against Echinococcus granulosus microcyst infected in kunming mouse assessed as mean cyst weight at 50 mg/kg, ip administered for 14 days; type: functional; conditions: time 14 day
Echinococcus granulosus [14] = experiment: Parasiticidal activity against Echinococcus granulosus microcyst infected in kunming mouse assessed as mean cyst weight at 25 mg/kg, ip administered for 14 days; type: functional; conditions: time 14 day
[15] = Neurotoxicity in Kunming mouse assessed as loosely arranged pyramidal cells in brain at 50 mg/kg, ip administered for 28 days by H and E staining based assay; type: toxicity, organism-based; conditions: in vivo, 672 h, time 28 day
Echinococcus granulosus [16] = experiment: Parasiticidal activity against Echinococcus granulosus protoscolices assessed as outer skin and hooks fall off at 5 uM incubated for 2 days by scanning electron microscopy; type: functional, organism-based; conditions: time 2.0 day
Echinococcus granulosus [17] = experiment: Parasiticidal activity against Echinococcus granulosus assessed as cyst destruction at 100 uM incubated for 4 days by scanning electron microscopy; type: functional, organism-based; conditions: time 4.0 day
Echinococcus granulosus [18] = experiment: Parasiticidal activity against Echinococcus granulosus microcyst infected in kunming mouse assessed as reduction in cyst weight at 12.5 mg/kg, ip administered for 14 days relative to control; type: functional; parameters: scale not given: the % may be the effect or the level left; conditions: time 14 day
[19] = Neurotoxicity in Kunming mouse assessed as increased postsynaptic density in hippocampal at 50 mg/kg, ip administered for 28 days by TEM analysis; type: toxicity, organism-based; conditions: in vivo, 672 h, time 28 day
Echinococcus granulosus [20] = experiment: Induction of autophagy in Echinococcus granulosus protoscolices assessed as decrease in p62 expression level at 5 uM measured after 4 days by Western blot analysis; type: functional, organism-based; conditions: time 4.0 day
Echinococcus granulosus [21] = experiment: Induction of autophagy in Echinococcus granulosus protoscolices assessed as increase in ATG5 expression level at 5 uM measured after 4 days by Western blot analysis; type: functional, organism-based; conditions: time 4.0 day
Echinococcus granulosus [22] = experiment: Parasiticidal activity against Echinococcus granulosus microcyst infected in kunming mouse assessed as mean cyst weight at 50 mg/kg, ip administered for 28 days; type: functional; conditions: time 28 day
Echinococcus granulosus [23] = experiment: Parasiticidal activity against Echinococcus granulosus microcyst infected in kunming mouse assessed as reduction in cyst weight at 25 mg/kg, ip administered for 14 days relative to control; type: functional; parameters: scale not given: the % may be the effect or the level left; conditions: time 14 day
Echinococcus granulosus [24] = experiment: Parasiticidal activity against Echinococcus granulosus protoscolices assessed as appearance of relative completion of sucker at 5 uM incubated for 2 days by scanning electron microscopy; type: functional, organism-based; conditions: time 2.0 day
Echinococcus granulosus [25] = experiment: Parasiticidal activity against Echinococcus granulosus microcyst infected in kunming mouse assessed as reduction in cyst weight at 25 mg/kg, ip administered for 28 days relative to control; type: functional; parameters: scale not given: the % may be the effect or the level left; conditions: time 28 day
Echinococcus granulosus [26] = experiment: Parasiticidal activity against Echinococcus granulosus protoscolices assessed as appearance of partial shedding at 5 uM incubated for 4 days by H and E staining based assay; type: functional, organism-based; conditions: time 4.0 day
[27] = Neurotoxicity in Kunming mouse assessed as swollen pyramidal cells in brain at 50 mg/kg, ip administered for 28 days by H and E staining based assay; type: toxicity, organism-based; conditions: in vivo, 672 h, time 28 day
[28] = Neurotoxicity in Kunming mouse assessed as blurred synaptic space in hippocampal at 50 mg/kg, ip administered for 28 days by TEM analysis; type: toxicity, organism-based; conditions: in vivo, 672 h, time 28 day
[29] = Neurotoxicity in Kunming mouse assessed as partial cristae in hippocampal at 50 mg/kg, ip administered for 28 days by TEM analysis; type: toxicity, organism-based; conditions: in vivo, 672 h, time 28 day
Echinococcus granulosus [30] = experiment: Parasiticidal activity against intraperitoneal cystic Echinococcus granulosus infected in Kunming mouse assessed as decrease number of microvilli at 50 mg/kg, ip administered for 28 days by TEM analysis; type: functional, organism-based; conditions: time 28.0 day
Echinococcus granulosus [31] = experiment: Parasiticidal activity against intraperitoneal cystic Echinococcus granulosus infected in Kunming mouse assessed as appearance of unclear cortex at 50 mg/kg, ip administered for 28 days by TEM analysis; type: functional, organism-based; conditions: time 28.0 day
Echinococcus granulosus [32] = experiment: Parasiticidal activity against Echinococcus granulosus microcyst infected in kunming mouse assessed as reduction in cyst weight at 12.5 mg/kg, ip administered for 28 days relative to control; type: functional; parameters: scale not given: the % may be the effect or the level left; conditions: time 28 day
[33] = Neurotoxicity in Kunming mouse assessed as deformed pyramidal cells in brain at 50 mg/kg, ip administered for 28 days by H and E staining based assay; type: toxicity, organism-based; conditions: in vivo, 672 h, time 28 day
[34] = Neurotoxicity in Kunming mouse assessed as widened perinuclear space in hippocampal neurons at 50 mg/kg, ip administered for 28 days by TEM analysis; type: toxicity, organism-based; conditions: in vivo, 672 h, time 28 day
[35] = Neurotoxicity in Kunming mouse assessed as nuclei damage at 50 mg/kg, ip administered for 28 days by TEM analysis; type: toxicity, organism-based; conditions: in vivo, 672 h, time 28 day
[36] = Neurotoxicity in Kunming mouse assessed as organelles damage at 50 mg/kg, ip administered for 28 days by TEM analysis; type: toxicity, organism-based; conditions: in vivo, 672 h, time 28 day
[37] = Neurotoxicity in Kunming mouse assessed as effect on heterochromatin at 50 mg/kg, ip administered for 28 days by TEM analysis; type: toxicity, organism-based; conditions: in vivo, 672 h, time 28 day
[38] = Neurotoxicity in Kunming mouse assessed as effect on hippocampal arrangement at 50 mg/kg, ip administered for 28 days by TEM analysis; type: toxicity, organism-based; conditions: in vivo, 672 h, time 28 day
[39] = Neurotoxicity in Kunming mouse assessed as effect on hippocampal structure at 50 mg/kg, ip administered for 28 days by TEM analysis; type: toxicity, organism-based; conditions: in vivo, 672 h, time 28 day

Q: Which results are given for `COc1ccc(-c2nc(C(=O)Nc3ccc(CN4CCC(N5CCCCC5)CC4)cc3)cc3c2[nH]c2ccccc23)c(OC)c1`?
A: LC50 (Echinococcus granulosus [1]): 13 µM; Activity (Echinococcus granulosus [2]): Active

Q: What does the source list for `COc1ccc2c(c1)[nH]c1c(C)nccc12` [HARMINE]?
A: LC50 (Echinococcus granulosus [1]): 135 µM; Activity (Echinococcus granulosus [3]): 27.8 mg; Activity [4]: Toxic; Activity (Echinococcus granulosus [5]): Active; Activity (Echinococcus granulosus [6]): Active; Activity (Echinococcus granulosus [7]): 56.93%; Activity (Echinococcus granulosus [8]): 26.6 mg; Activity (Echinococcus granulosus [9]): 24.8 mg; Activity (Echinococcus granulosus [10]): 55.97%; Activity (Echinococcus granulosus [11]): 100%; Activity (Echinococcus granulosus [12]): Active; Activity (Echinococcus granulosus [13]): 22.7 mg; Activity (Echinococcus granulosus [14]): 25.1 mg; Activity [15]: Toxic; Activity (Echinococcus granulosus [16]): Active; Activity (Echinococcus granulosus [17]): inactive; Activity (Echinococcus granulosus [18]): 46.13%; Activity [19]: Toxic; Activity (Echinococcus granulosus [20]): Active; Activity (Echinococcus granulosus [21]): Active; Activity (Echinococcus granulosus [22]): 23.4 mg; Activity (Echinococcus granulosus [23]): 51.2%; Activity (Echinococcus granulosus [24]): Active; Activity (Echinococcus granulosus [25]): 54.4%; Activity (Echinococcus granulosus [26]): Active; Activity [27]: Toxic; Activity [28]: Toxic; Activity [29]: Toxic; Activity (Echinococcus granulosus [30]): Active; Activity (Echinococcus granulosus [31]): Active; Activity (Echinococcus granulosus [32]): 67.17%; Activity [33]: Toxic; Activity [34]: Toxic

Q: Which LC50 (Echinococcus granulosus [1]) does the source give for `COc1cc(OC)cc(-c2nc(C(=O)Nc3ccc(CN4CCC(N5CCCCC5)CC4)cc3)cc3c2[nH]c2ccccc23)c1` here?
A: The LC50 was 7.16 µM.

Q: And the Activity (Echinococcus granulosus [2])?
A: Its Activity is “Active”.

Q: With `CCCSc1ccc2nc(NC(=O)OC)[nH]c2c1` [ALBENDAZOLE] as the compound, how does the Activity [35] read?
A: Its Activity is “Non-Toxic”.

Q: What about the Activity [15] of the same compound?
A: Its Activity is “Non-Toxic”.

Q: And the Activity [36]?
A: Its Activity is “Non-Toxic”.

Q: What about the Activity [37] of the same compound?
A: Its Activity is “Non-Toxic”.

Q: What about the Activity [27] of the same compound?
A: Its Activity is “Non-Toxic”.

Q: And the Activity [33]?
A: Its Activity is “Non-Toxic”.

Q: And the Activity [38]?
A: The Activity was “Non-Toxic”.

Q: And the Activity [39]?
A: The Activity was “Non-Toxic”.
